Earlier results, collected in patent US6391342B1, “Pharmaceutical formulation comprising a 2- [(2-pyridinyl) methyl] sulfinyl benzimidazole having anti-ulcer activity and a process for the preparation of such formulation” (A/S GEA Farmaceutisk Fabrik, priority 1998, dated 2002).
Where two headings read alike, the source gives them in different places.

For COc1ccc2[nH]c([S+]([O-])Cc3ncc(C)c(OC)c3C)nc2c1 (stereo not drawn) [omeprazole, 5-methoxy-2-[[(4-methoxy-3,5-dimethyl-2-pyridinyl)methyl]sulfinyl]-1H-benzimidazole], the stability to acids (acids) is given as “sensible to acids”, the solubility (in alkaline solutions) is given as “very soluble” and the solubility (in water) is given as “only slightly soluble”.
